Reference: patent US8921420B2, “Method for preparing dicaffeoylquinic acids and use thereof in combating aphids” (Institut National de la Recherche Agronomique, priority 2008, dated 2014)

Columns and labels:
[1] = test system: Myzus persicae; experiment: Toxicity test on larval development on Ap3 feeding medium (larval mortality, weight of wingless adults); type: in vivo
Procedure: The goal is to quantify the toxic effect of 3,5-diCQ on the aphid throughout its larval development, namely 8 to 10 days for Myzus persicae at 19° C. The molecule is added at various concentrations to the Ap3 feeding medium.
(§1) The medium ([…]) is poured between two UV-sterilized Parafilm® membranes and drawn onto a cylindrical support made of PVC (h=1.5 cm, d=2 cm), under sterile conditions. On Day D0, 20 neonate larvae are placed inside the cylinder, which is then turned over and pressed onto a square of Parafilm®. The dishes are placed under dimmed light (16 hr day/8 hr night) and in an enclosure set at 19° C. The fixation percentage is recorded after 1 hour as a short-term phagostimulation indicator and in order to verify that no anomaly had occurred when the aphids were placed inside the cylinder. Larval mortality is noted daily at the end of the day. On Day D+3, the larvae are sampled and split up into two new dishes. On the day of their adult molt, the aphids that have reached the wingless adult stage are deposited successively onto a precision scale (d=0.01 mg) and the cumulative weights are recorded for each concentration of each tested molecule. Individual weights are calculated thereafter. The effects of a single molecule at all concentrations and the effects of the control medium are evaluated simultaneously during the same test. The tests are routinely performed in 3 repetitions.

[2] = test system: Myzus persicae; experiment: Selection test between two media (phagostimulation index, repulsivity); type: in vivo; conditions: for concentration at which significantly repulsive: against Ap3 control medium; for concentration at which the repulsive effect (negative phagostimulation index) is significant: tested against Ap3 medium, lowest concentration tested 0.25 mM
Text: The method used is the one developed by Yvan Rahbé (Rahbé & Febvay (1993) Entomologia Experimentalis et Applicata 67: 149-160; Chen (1996) Thesis, Institut National des Sciences Appliquées, Lyon, France: 158 pp.) in the context of research on the chemical determinants of plant resistance to various aphid species (Aphis gossypii, Acyrthosiphon pisum), and adapted to the green peach aphid, Myzus persicae.
(§2) The goal is to evaluate the attractive or repulsive character of a candidate molecule, at various concentrations, either in relation to a control base medium or in relation to another substance. The base medium used, referred to as Ap3 (composition in the table in FIG. 10), was developed at the UMR INRA-INSA in Lyon in order to enable optimal development of the Acyrtosiphon pisum aphid species (Febvay et al. (1988) Canadian Journal of Zoology 66: 2149-2453). It also enables the development of Myzus persicae. This base medium may or may not be supplemented by the various phenolic acids tested. The aphid's selected behavior when placed in the presence of both media is studied inside a closed system where the insect has no alternative in order to feed itself but to select one of the two media. The device is shown in diagram form in FIG. 11.
The medium (35 μl) is poured between two Parafilm® membranes stretched onto an Eppendorf® cone. On a rack holding 6 experiment cages, a control medium is arranged opposite a test medium on each cage. The repetitions of a single modality (control medium or test medium) are arranged in alternating fashion along the rack, in order to prevent any systematic bias when the aphids are placed inside. At the end of the day, six aphid larvae (second or third stage) are placed inside each of the cages of one rack. Next, the racks are inserted into a black box placed inside a climate-controlled test chamber at 19° C. for 15 hours. This passage into darkness stabilizes the larvae's fixation more quickly. The following morning, the number of aphids fixed on each medium is recorded. The tests are performed in routine fashion on 24 selection repetitions (4 racks with 6 cages each). A phagostimulation index, representing the degree of desire for the aphid in the test medium, is calculated as follows: Phagostimulation index=(Test no.−Control no.)/Total no., wherein:
Test no.=Number of aphids fixed on the test medium,
Control no.=Number of aphids fixed on the control medium,
Total no.=Total number of fixed aphids.
Consequently, the value of the index ranges from −1 to 1. A negative index means that the test medium is repulsive in relation to the control medium, and a positive index means that the test medium is attractive. The hypothesis that the effect of the test medium is identical to that of the control medium is examined by the Wilcoxon rank test.
The tested phenolic substances other than 3,5-diCQ are of commercial origin apart from the caffeic acid methyl ester, which was synthesized. The molecules were characterized by mass spectrometry and proton nuclear magnetic resonance. The amount and stability of the dissolved molecules are monitored by HPLC after the molecules are dissolved in the Ap3 medium, at the beginning and at the end of the experiment.

[3] = test system: Acyrtosiphon pisum; experiment: Selection test (phagorepulsive effect), first-stage larvae; type: in vivo, Acyrthosiphon pisum; conditions: FIG. 21
Text: as §2
(§3) The medium (35 μl) is poured between two Parafilm® membranes stretched onto an Eppendorf® cone. On a rack holding 6 experiment cages, a control medium is arranged opposite a test medium on each cage. […] The following morning, the number of aphids fixed on each medium is recorded. […] A phagostimulation index, representing the degree of desire for the aphid in the test medium, is calculated as follows: Phagostimulation index=(Test no.−Control no.)/Total no., wherein: […]

[4] = test system: Acyrtosiphon pisum; experiment: Toxicity test during larval development; type: in vivo; conditions: FIG. 22
Procedure: as §1
(§4) Regarding the toxicity tests, no changes were made to the protocol for tests on Macrosiphum euphorbiae. However, given the size and sensitivity to stress of Acyrthosiphon pisum, the number of individuals per dish was changed to 10, the number of repetitions per tested dose was changed to 4, and no change was made to the medium during the test, as excessive disturbance of the aphids would have resulted from doing so.

[5] = test system: Macrosiphum euphorbiae; experiment: Toxicity test during larval development; type: in vivo; conditions: FIG. 24
Procedure: as §1, §4

[6] = test system: Macrosiphum euphorbiae; experiment: Selection test (phagorepulsive effect), first-stage larvae; type: in vivo; conditions: FIG. 23
Text: as §2, §3

[7] = test system: chewing insects; conditions: Tamura et al. 2004; Mullin et al. 1991; cited from earlier work
[8] = FIG. 15, range 0.03125 to 1 mM, against Ap3

Q: Which “toxic effect on larval development (in words)” value ([1]; in vivo) does the source give for `O=C(/C=C/c1ccc(O)c(O)c1)O[C@@H]1C[C@](OC(=O)/C=C/c2ccc(O)c(O)c2)(C(=O)O)C[C@@H](O)[C@H]1O` [1,5-diCQ, 1,5-dicaffeoylquinic acid] here?
A: toxic activity

Q: Which results are given for `O=C(/C=C/c1ccc(O)c(O)c1)O[C@@H]1CC(O)(C(=O)O)C[C@@H](OC(=O)/C=C/c2ccc(O)c(O)c2)C1O` (stereo partly drawn) [3,5-diCQ, 3,5-dicaffeoylquinic acid]?
A: repulsive effect at 0.03125 mM (in words) ([2]; 0.03125 mM): no toxic or repulsive effect; concentration at which significantly repulsive ([2]; FIG. 13): 0.125 mM; choice between 3,5-diCQ and chlorogenic acid at a single molarity ([2]; FIG. 13, tested against each other, at 0.125 mM): systematically selects CA rather than 3,5-diCQ; repulsive effect of 0.5 mM versus chlorogenic acid at 2 mM ([2]; FIG. 14, pH 7.5, CA four times higher): remains repulsive; dose with highly significant repulsive effect [2, 8]: 0.125 mM; minimum concentration at which repulsive effect is detectable ([2]; in vivo): 125 µM; repulsive effect / activity (in words) ([2]; in vivo): repulsive activity; minimum concentration at which repulsive effect is detectable ([2]; same value converted): 64.5 mg/L; toxic effect at 0.03125 mM (in words) ([1]; 0.03125 mM): no toxic or repulsive effect; reaching the wingless adult stage ([1]; 1 and 2 mM concentrations): no aphids reached the wingless adult stage; larval mortality ([1]; FIG. 16, at 2 mM): ~100%; dose starting at which significant depressive effect on weight of wingless adults ([1]; FIG. 17): 0.25 mM; dose with significant depressive effect on weight of wingless adults ([1]; FIG. 20): 0.5 mM; toxic effect on larval development (in words) ([1]; in vivo): high mortality; toxic effect on larval development (in words) ([1]; in vivo, listed as 3,5-dicaffeoylquinic acid): toxic activity; dose starting at which significant repulsive effect [3]: 0.03125 mM; mortality ([4]; starting at 0.03125 mM, within 2 days): exceeds 50%; mortality ([4]; starting at 0.25 mM, within 4 days): 100%; mortality ([5]; 0.25 mM dose, within 6 days): ~100%; mortality ([5]; 0.5 and 1 mM doses, within 3 to 7 days): 100%; dose starting at which highly significant repulsive effect [6]: 0.125 mM; effect on feeding of chewing insects (in words) [7]: phagostimulating effect

Q: With `O=C(/C=C/c1ccc(O)c(O)c1)O[C@H]1[C@H](O)C[C@](O)(C(=O)O)C[C@H]1OC(=O)/C=C/c1ccc(O)c(O)c1` [4,5-diCQ, 4,5-dicaffeoylquinic acid] as the compound, how does the “dose starting at which significant repulsive effects were detected” value [2, 8] read?
A: 0.03125 mM

Q: What about the “dose with highly significant repulsive effect” value [2, 8] of the same compound?
A: 0.125 mM

Q: And the “repulsive effect / activity (in words)” value ([2]; in vivo)?
A: repulsive activity

Q: And the “dose with significant depressive effect on weight of wingless adults” value ([1]; FIG. 20)?
A: 0.25 mM

Q: What about the “toxic effect on larval development (in words)” value ([1]; in vivo) of the same compound?
A: toxic activity

Q: Which “repulsive effect (in words)” value ([2]; FIG. 12, concentration range tested, against Ap3 medium) does the source give for `O=C(O)/C=C/c1ccc(O)cc1` [Para-coumaric acid, para-coumaric acid, reference compound] here?
A: no repulsive effect

Q: For `O=C(/C=C/c1ccc(O)c(O)c1)O[C@@H]1C[C@](O)(C(=O)O)C[C@@H](O)[C@H]1O` [chlorogenic acid, 5-caffeoylquinic acid, reference compound], which “concentration at which the repulsive effect (negative phagostimulation index) is significant” value ([2]; FIG. 12) is on record?
A: 0.5 mM

Q: And the “concentration at which significantly repulsive” value ([2]; FIG. 13)?
A: 0.25 mM

Q: What about the “effect on weight of wingless adults (in words)” value ([1]; FIG. 18) of the same compound?
A: probiotic effect

Q: And the larval mortality ([1]; in vivo)?
A: ≤ 10%

Q: What about the “toxic effect on larval development (in words)” value ([1]; in vivo) of the same compound?
A: no negative effects

Q: With `O=C(/C=C/c1ccc(O)c(O)c1)O[C@@H]1C[C@@](OC(=O)/C=C/c2ccc(O)c(O)c2)(C(=O)O)C[C@@H](O)[C@@H]1O` [cynarin] as the compound, how does the “concentration at which the repulsive effect (negative phagostimulation index) is significant” value ([2]; FIG. 12) read?
A: 1 mM

Q: And the “effect on the aphids' weights (in words)” value ([1]; FIG. 20, at the 0.25 mM dose)?
A: no effect
